The target in this test is T1, RORγ (Homo sapiens, UniProt P51449).
T1 construct: expressed in transfected cells; host or cells: 293FT cells (Invitrogen), expression vector pFN26A (Promega)
T1 sequence (P51449 269-508 limits assumed): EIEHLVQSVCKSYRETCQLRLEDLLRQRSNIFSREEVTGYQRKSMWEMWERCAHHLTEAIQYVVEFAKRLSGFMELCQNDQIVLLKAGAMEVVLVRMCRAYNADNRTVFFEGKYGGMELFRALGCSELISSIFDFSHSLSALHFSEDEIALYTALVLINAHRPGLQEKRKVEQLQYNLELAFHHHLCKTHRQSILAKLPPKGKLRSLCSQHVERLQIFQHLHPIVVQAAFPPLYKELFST
In words: RORγ GAL4 reporter gene assay (luciferase readout, 293FT cells). In kind it is cell-based. Particulars: inhibition of RORγ (GAL4-RORγ-LBD) in transfected 293FT cells, luciferase signal, overnight incubation; read-out: mean pIC50 (converted). How it is done:
RORγ GAL4 Reporter Gene Assay
Example inhibitors 1-47 were tested for their ability to inhibit RORγ activity in a RORγ GAL4 reporter gene assay. The assay procedure and results are described below.
RORγ GAL4 Reporter Gene Assay Description
A GAL4 one-hybrid reporter system employing luciferase readout was established to determine inhibition of RORγ in 293FT cells. The RORγ ligand-binding domain (LBD) was fused to the yeast GAL4 DNA binding domain (DBD) and placed under the control of the human cytomegalovirus (CMV) immediate early promoter, using expression vector pFN26A (Promega) and standard recombinant DNA cloning methods. To serve as a control in the assay, a similar vector was generated in which the GAL4-DBD was fused to Herpes simplex virus protein 16 (VP16), a constitutive transcriptional activator.
To monitor the inhibitory effect of compounds on RORγ, a transcriptional reporter construct was used. The pGL4.35 vector (Promega) contains nine copies of the GAL4 Upstream Activator Sequence (UAS). This sequence drives the transcription of the luciferase reporter gene luc2P in response to binding of a fusion protein containing the GAL4 DNA binding domain, as for example expressed by the GAL4-RORγ-LBD and GAL4-VP16 expression vectors described above. To allow a GAL4 fusion protein to drive the expression of the luciferase reporter, the pGL4.35 expression vector and the appropriate GAL4 fusion protein expression vector were bulk transfected in the 293FT cells using standard transfection techniques.
The day after transfection, cells were plated into 96 well plates, test compound was added and the plates were incubated overnight. Subsequently, the firefly luciferase activity was quantified using luciferase detection reagent and luminescence readout.
Detailed Assay Description
293FT cells (Invitrogen) were transfected with a GAL4 fusion protein expression vector (as described above) and the transcriptional reporter construct (pGL4.35, Promega). 60 μL of TransIT-293 transfection reagent (Mirus Bio) was added drop wise to 1500 μl Opti-MEM I Reduced Serum Medium (Invitrogen) and incubated at room temperature (RT) for 5 to 20 minutes. 1500 μL of this reagent mixture was added to 5 μg of GAL4 fusion protein expression vector and 5 μg of the transcriptional reporter construct, and incubated at RT for 20 minutes.
To harvest 293FT cells from a T75 flask, first the culture medium was taken off the cells. Subsequently, the cells were washed with Phosphate Buffered Saline (PBS) (Lonza), after which the PBS was removed. To dissociate the cells, 1 ml of TrypLE Express (Invitrogen) was added to the flask, followed by incubation at RT until the cells visually started to detach. Cells were collected in 5 mL of assay medium (DMEM culture medium (Lonza), 10% dialyzed FBS (Invitrogen) and Pen/Strep (Lonza)) to achieve a single cell suspension. 10×10^6 cells were spun down and re-suspended in 10 mL of assay medium. Subsequently, the cell suspension was added to the transfection mix tube, and then transferred as a whole to a T75 flask (Greiner), followed by overnight (16-24 hours) incubation at 37° C. and 5% CO2.
For compound screening, the cells were harvested (as described above) and counted. 13×10^6 cells were spun down, the supernatant was aspirated and the cells were re-suspended in 17.3 mL of assay medium obtaining a cell suspension of 0.75×10^6 cells/mL. 80 μL of cell suspension (60,000 cells) was plated per well into a white, flat bottom, tissue culture treated, 96 well screening plates (Greiner).
Test compounds were diluted, starting from a 10 mM dimethylsulf oxide (DMSO) stock solution, to serial dilutions in DMSO at 500× the final test concentration. Subsequently, these solutions were diluted to 5× the final test concentration in two 10-fold-dilution steps in assay medium. The final DMSO concentration of the 5× test compound solution was 1%. […]
Turning to `Cc1nc(NC(=O)Cc2ccc(S(=O)(=O)CC3CC3)cc2)ccc1-c1ccccc1OC(F)(F)F` [Example 32, 2-(4-cyclopropylmethanesulfonylphenyl)-N-{6-methyl-5-[2-(trifluoromethoxy)phenyl]pyridin-2-yl}acetamide], the IC50 is no more than 100 nM.
As for `Cc1nc(NC(=O)Cc2ccc(S(=O)(=O)NC3CC3)cc2)ccc1-c1ccccc1OC(F)(F)F` [Example 34, 2-[4-(cyclopropylsulfamoyl)phenyl]-N-{6-methyl-5-[2-(trifluoromethoxy)phenyl]pyridin-2-yl}acetamide], the figure is no more than 100 nM; as for `Cc1cc(NC(=O)Cc2ccc(S(=O)(=O)NC3CC3)cc2)ncc1-c1ccccc1OC(F)(F)F` [Example 35, 2-[4-(cyclopropylsulfamoyl)phenyl]-N-{4-methyl-5-[2-(trifluoromethoxy)phenyl]pyridin-2-yl}acetamide], no more than 1000 nM.
Under `O=C(Cc1ccc(S(=O)(=O)CC2CC2)cc1)Nc1ccc(-n2cccn2)cc1` [Example 44, 2-(4-cyclopropylmethanesulfonylphenyl)-N-[4-(1H-pyrazol-1-yl)phenyl]acetamide] stands no more than 1000 nM; under `O=C(Cc1ccc(S(=O)(=O)CC2CC2)cc1)Nc1ccc(-c2ccccc2)c(Oc2ccccc2)c1` [Example 1, 2-(4-cyclopropylmethanesulfonylphenyl)-N-(3-phenoxy-4-phenylphenyl)acetamide], no more than 1000 nM; under `COc1cccc(Oc2cc(NC(=O)Cc3ccc(S(=O)(=O)NC4CC4)cc3)ccc2-n2cnc(C)c2)c1` [Example 14, 2-[4-(cyclopropylsulfamoyl)phenyl]-N-[3-(3-methoxyphenoxy)-4-(4-methyl-1H-imidazol-1-yl)phenyl]acetamide], no more than 1000 nM.
In the case of `O=C(Cc1ccc(S(=O)(=O)CC2CC2)cc1)Nc1ccc(-n2cncn2)cc1` [Example 46, 2-(4-cyclopropylmethanesulfonylphenyl)-N-[4-(1H-1,2,4-triazol-1-yl)phenyl]acetamide], the IC50 was no more than 1000 nM.
As for `N#Cc1cccc(Oc2cc(NC(=O)Cc3ccc(S(=O)(=O)CC4CC4)cc3)ccc2-c2ccc(F)c(F)c2)c1` [Example 6, N-[3-(3-cyanophenoxy)-4-(3,4-difluorophenyl)phenyl]-2-(4-cyclopropylmethanesulfonylphenyl)acetamide], the figure is no more than 100 nM.
Under `N#Cc1ccc(-c2ccc(NC(=O)Cc3ccc(S(=O)(=O)CC4CC4)cc3)cc2Oc2cccc(F)c2)cc1` [Example 9, N-[4-(4-cyanophenyl)-3-(3-fluorophenoxy)phenyl]-2-(4-cyclopropylmethanesulfonylphenyl)acetamide] stands no more than 100 nM; under `O=C(Cc1ccc(S(=O)(=O)CC2CC2)cc1)Nc1ccc(-c2cnco2)cc1` [Example 43, 2-(4-cyclopropylmethanesulfonylphenyl)-N-[4-(1,3-oxazol-5-yl)phenyl]acetamide], no more than 1000 nM; under `O=C(Cc1ccc(S(=O)(=O)CC2CC2)cc1)Nc1ccc(-c2ccc(F)c(F)c2)c(Oc2cccc(Cl)c2)c1` [Example 5, N-[3-(3-chlorophenoxy)-4-(3,4-difluorophenyl)phenyl]-2-(4-cyclopropylmethanesulfonylphenyl)acetamide], no more than 100 nM.
As for `Cc1cnn(-c2ccc(NC(=O)Cc3ccc(S(=O)(=O)CC4CC4)cc3)cc2)c1` [Example 42, 2-(4-cyclopropylmethanesulfonylphenyl)-N-[4-(4-methyl-1H-pyrazol-1-yl)phenyl]acetamide], the figure is no more than 1000 nM; as for `O=C(Cc1ccc(S(=O)(=O)CC2CC2)cc1)Nc1nc(-c2ccccc2)c(Oc2ccccc2)s1` [Example 20, 2-(4-cyclopropylmethanesulfonylphenyl)-N-(5-phenoxy-4-phenyl-1,3-thiazol-2-yl)acetamide], no more than 1000 nM.
Consider `O=C(Cc1ccc(S(=O)(=O)CC2CC2)cc1)Nc1cc(-c2ccccc2)c(C(=O)c2ccccc2)s1` [Example 27, N-(5-benzoyl-4-phenylthiophen-2-yl)-2-(4-cyclopropylmethanesulfonylphenyl)acetamide], for which the IC50 was no more than 100 nM.
As to `O=C(Cc1ccc(S(=O)(=O)NC2CC2)cc1)Nc1ccc(-c2ccc(F)c(F)c2)c(Oc2cccc(Cl)c2)c1` [Example 18, N-[3-(3-chlorophenoxy)-4-(3,4-difluorophenyl)phenyl]-2-[4-(cyclopropylsulfamoyl)phenyl]acetamide], the IC50 was no more than 1000 nM.
As for `O=C(Cc1ccc(S(=O)(=O)NC2CC2)cc1)Nc1nc(-c2ccccc2)c(C(=O)c2ccccc2)s1` [Example 26, N-(5-benzoyl-4-phenyl-1,3-thiazol-2-yl)-2-[4-(cyclopropylsulfamoyl)phenyl]acetamide], the figure is no more than 100 nM; as for `O=C(Cc1ccc(S(=O)(=O)CC2CC2)cc1)Nc1nc(-c2cccc(Cl)c2)c(C(=O)c2ccc(Cl)cc2)s1` [Example 23, N-[5-(4-chlorobenzoyl)-4-(3-chlorophenyl)-1,3-thiazol-2-yl]-2-(4-cyclopropylmethanesulfonylphenyl)acetamide], no more than 100 nM.
As for `O=C(Cc1ccc(S(=O)(=O)NC2CC2)cc1)Nc1ccc(-c2cccc(F)c2)c(Oc2cccc(C(F)(F)F)c2)c1` [Example 19, 2-[4-(cyclopropylsulfamoyl)phenyl]-N-[4-(3-fluorophenyl)-3-[3-(trifluoromethyl)phenoxy]phenyl]acetamide], the figure is no more than 1000 nM; as for `N#Cc1cccc(-c2ccc(NC(=O)Cc3ccc(S(=O)(=O)CC4CC4)cc3)cc2Oc2cccc(Cl)c2)c1` [Example 10, N-[3-(3-chlorophenoxy)-4-(3-cyanophenyl)phenyl]-2-(4-cyclopropylmethanesulfonylphenyl)acetamide], no more than 100 nM.
Under `O=C(Cc1ccc(S(=O)(=O)CC2CC2)cc1)Nc1ccc(-c2ccc(F)cc2)c(Oc2cccc(F)c2)c1` [Example 12, 2-(4-cyclopropylmethanesulfonylphenyl)-N-[3-(3-fluorophenoxy)-4-(4-fluorophenyl)phenyl]acetamide] stands no more than 100 nM; under `Cc1cc(NC(=O)Cc2ccc(S(=O)(=O)NC3CC3)cc2)ccc1-c1ccccc1OC(F)(F)F` [Example 36, 2-[4-(cyclopropylsulfamoyl)phenyl]-N-{3-methyl-4-[2-(trifluoromethoxy)phenyl]phenyl}acetamide], no more than 100 nM.
With `O=C(Cc1ccc(S(=O)(=O)CC2CC2)cc1)Nc1ccc(-c2cccc(F)c2)c(Oc2cc(F)cc(F)c2)c1` [Example 13, 2-(4-cyclopropylmethanesulfonylphenyl)-N-[3-(3,5-difluorophenoxy)-4-(3-fluorophenyl)phenyl]acetamide], the IC50 was no more than 100 nM.
For `Cc1ccnn1-c1ccc(NC(=O)Cc2ccc(S(=O)(=O)CC3CC3)cc2)cc1` [Example 41, 2-(4-cyclopropylmethanesulfonylphenyl)-N-[4-(5-methyl-1H-pyrazol-1-yl)phenyl]acetamide], the IC50 was no more than 1000 nM.
Under `COc1cccc(Oc2cc(NC(=O)Cc3ccc(S(=O)(=O)CC4CC4)cc3)ccc2-c2cccc(F)c2)c1` [Example 2, 2-(4-cyclopropylmethanesulfonylphenyl)-N-[4-(3-fluorophenyl)-3-(3-methoxyphenoxy)phenyl]acetamide] stands no more than 100 nM; under `O=C(Cc1ccc(S(=O)(=O)CC2CC2)cc1)Nc1cc(-c2ccccc2)cs1` [Example 24, 2-(4-cyclopropylmethanesulfonylphenyl)-N-(4-phenylthiophen-2-yl)acetamide], no more than 1000 nM.

The values are drawn from patent US10259782B2, “ROR gamma (RORγ) modulators” (LEAD PHARMA HOLDING B.V., priority 2015, dated 2019).
